Test results taken from PubChem BioAssay (NCI).
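48-hour exposure; five concentrations; linearly interpolated endpoints. GI50: concentration for 50% inhibition of growth. At the TGI there is no net growth.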

Experiments:
Test in all cases: growth of human tumour cells (NCI), 48 h
[1] = tested on: K-562 leukemia
[2] = tested on: MDA-MB-435
[3] = tested on: OVCAR-5 ovarian
[4] = tested on: SK-MEL-28 melanoma
[5] = tested on: A498 renal
[6] = tested on: NCI-H460 lung
[7] = tested on: COLO 205 colon
[8] = tested on: HOP-62 NSCLC
[9] = tested on: UACC-257 melanoma
[10] = tested on: HL-60(TB) leukemia
[11] = tested on: HOP-92 NSCLC
[12] = tested on: DU-145 prostate
[13] = tested on: SN12C renal
[14] = tested on: RPMI-8226 leukemia
[15] = tested on: U251 CNS
[16] = tested on: NCI/ADR-RES ovarian
[17] = tested on: T-47D breast
[18] = tested on: SW-620 colon
[19] = tested on: CCRF-CEM leukemia
[20] = tested on: HT29 colon
[21] = tested on: MCF7 breast
[22] = tested on: HCT-15 colon
[23] = tested on: HS 578T breast
[24] = tested on: 786-0 renal
[25] = tested on: A549 NSCLC
[26] = tested on: KM12 colon
[27] = tested on: PC-3 prostate
[28] = tested on: MDA-MB-231 breast
[29] = tested on: OVCAR-3 ovarian
[30] = tested on: M14 melanoma
[31] = tested on: MALME-3M melanoma
[32] = tested on: TK-10 renal
[33] = tested on: NCI-H226 lung
[34] = tested on: SF-268 CNS
[35] = tested on: CAKI-1 renal
[36] = tested on: UACC-62 melanoma
[37] = tested on: IGROV1 ovarian
[38] = tested on: OVCAR-8 ovarian
[39] = tested on: LOX IMVI melanoma
[40] = tested on: HCT-116 colon
[41] = tested on: SK-OV-3 ovarian
[42] = tested on: SF-539 CNS
[43] = tested on: EKVX NSCLC
[44] = tested on: HCC-2998 colon
[45] = tested on: OVCAR-4 ovarian
[46] = tested on: SNB-75 CNS
[47] = tested on: BT-549 breast
[48] = tested on: SR leukemia
[49] = tested on: MOLT-4 leukemia
[50] = tested on: SF-295 CNS
[51] = tested on: SNB-19 CNS
[52] = tested on: SK-MEL-2 melanoma
[53] = tested on: ACHN renal
[54] = tested on: UO-31 renal
[55] = tested on: NCI-H522 lung
[56] = tested on: RXF 393 renal
[57] = tested on: SK-MEL-5 melanoma

SMILES: COCCNc1ccc2ncc(C#Cc3cncc(C(=O)Nc4ccc(CN5CCN(C)CC5)c(C(F)(F)F)c4)c3)n2n1
- GI50 [1]: 9.89 nM
- TGI [1]: 540 nM
- GI50 [2]: 142 nM
- TGI [2]: 843 nM
- GI50 [3]: 234 nM
- TGI [3]: 1400 nM
- GI50 [4]: 402 nM
- TGI [4]: 1300 nM
- GI50 [5]: 221 nM
- TGI [5]: 474 nM
- GI50 [6]: 123 nM
- TGI [6]: 621 nM
- GI50 [7]: 120 nM
- TGI [7]: 294 nM
- GI50 [8]: 242 nM
- TGI [8]: 1370 nM
- GI50 [9]: 692 nM
- TGI [9]: 2130 nM
- GI50 [10]: 134 nM
- TGI [10]: 566 nM
- GI50 [11]: 50.3 nM
- TGI [11]: 229 nM
- GI50 [12]: 251 nM
- TGI [12]: 1540 nM
- GI50 [13]: 88.8 nM
- TGI [13]: 766 nM
- GI50 [14]: 195 nM
- TGI [14]: 719 nM
- GI50 [15]: 265 nM
- TGI [15]: 984 nM
- GI50 [16]: 1890 nM
- TGI [16]: 50000 nM
- GI50 [17]: 325 nM
- TGI [17]: 1580 nM
- GI50 [18]: 83.1 nM
- TGI [18]: 257 nM
- GI50 [19]: 24.9 nM
- TGI [19]: 6680 nM
- GI50 [20]: 198 nM
- TGI [20]: 954 nM
- GI50 [21]: 139 nM
- TGI [21]: 933 nM
- GI50 [22]: 180 nM
- TGI [22]: 715 nM
- GI50 [23]: 77.9 nM
- TGI [23]: 452 nM
- GI50 [24]: 236 nM
- TGI [24]: 939 nM
- GI50 [25]: 208 nM
- TGI [25]: 1120 nM
- GI50 [26]: 5 nM
- TGI [26]: 1200 nM
- GI50 [27]: 254 nM
- TGI [27]: 2130 nM
- GI50 [28]: 82.3 nM
- TGI [28]: 333 nM
- GI50 [29]: 232 nM
- TGI [29]: 1340 nM
- GI50 [30]: 125 nM
- TGI [30]: 408 nM
- GI50 [31]: 181 nM
- TGI [31]: 711 nM
- GI50 [32]: 232 nM
- TGI [32]: 729 nM
- GI50 [33]: 147 nM
- TGI [33]: 980 nM
- GI50 [34]: 156 nM
- TGI [34]: 737 nM
- GI50 [35]: 113 nM
- TGI [35]: 327 nM
- GI50 [36]: 284 nM
- TGI [36]: 832 nM
- GI50 [37]: 123 nM
- TGI [37]: 639 nM
- GI50 [38]: 197 nM
- TGI [38]: 830 nM
- GI50 [39]: 97.3 nM
- TGI [39]: 338 nM
- GI50 [40]: 80.4 nM
- TGI [40]: 387 nM
- GI50 [41]: 426 nM
- TGI [41]: 1290 nM
- GI50 [42]: 41.4 nM
- TGI [42]: 215 nM
- GI50 [43]: 186 nM
- TGI [43]: 807 nM
- GI50 [44]: 315 nM
- TGI [44]: 1090 nM
- GI50 [45]: 352 nM
- TGI [45]: 2030 nM
- GI50 [46]: 25.7 nM
- TGI [46]: 126 nM
- GI50 [47]: 434 nM
- TGI [47]: 1210 nM
- GI50 [48]: 78.3 nM
- TGI [48]: 760 nM
- GI50 [49]: 51.4 nM
- TGI [49]: 1510 nM
- GI50 [50]: 708 nM
- TGI [50]: 3330 nM
- GI50 [51]: 289 nM
- TGI [51]: 1820 nM
- GI50 [52]: 97.8 nM
- TGI [52]: 273 nM
- GI50 [53]: 157 nM
- TGI [53]: 870 nM
- GI50 [54]: 777 nM
- TGI [54]: 1990 nM
- GI50 [55]: 99.8 nM
- TGI [55]: 315 nM
- GI50 [56]: 145 nM
- TGI [56]: 432 nM
- GI50 [57]: 575 nM
- TGI [57]: 1240 nM

SMILES: CN1CCN(c2nc(-c3csc(-c4ccccc4)n3)cc3ccccc23)CC1
- GI50 [1]: 1840 nM
- TGI [1]: 3660 nM
- GI50 [2]: 1780 nM
- TGI [2]: 3470 nM
- GI50 [3]: 3230 nM
- TGI [3]: 12800 nM
- GI50 [4]: 1740 nM
- TGI [4]: 3280 nM
- GI50 [5]: 14800 nM
- TGI [5]: 28900 nM
- GI50 [6]: 1730 nM
- TGI [6]: 3270 nM
- GI50 [7]: 1680 nM
- TGI [7]: 3190 nM
- GI50 [8]: 2580 nM
- TGI [8]: 10600 nM
- GI50 [9]: 1890 nM
- TGI [9]: 4190 nM
- GI50 [10]: 1840 nM
- TGI [10]: 3910 nM
- GI50 [11]: 1880 nM
- TGI [11]: 7630 nM
- GI50 [12]: 2700 nM
- TGI [12]: 7980 nM
- GI50 [13]: 3450 nM
- TGI [13]: 12100 nM
- GI50 [14]: 2090 nM
- TGI [14]: 5370 nM
- GI50 [15]: 2340 nM
- TGI [15]: 6220 nM
- GI50 [16]: 1930 nM
- TGI [16]: 4250 nM
- GI50 [17]: 2070 nM
- TGI [17]: 5530 nM
- GI50 [18]: 1630 nM
- TGI [18]: 3120 nM
- GI50 [19]: 1960 nM
- TGI [19]: 4340 nM
- GI50 [20]: 1750 nM
- TGI [20]: 3280 nM
- GI50 [21]: 1650 nM
- TGI [21]: 3460 nM
- GI50 [22]: 1850 nM
- TGI [22]: 3660 nM
- GI50 [23]: 4570 nM
- TGI [23]: 27100 nM
- GI50 [24]: 1680 nM
- TGI [24]: 3340 nM
- GI50 [25]: 10300 nM
- TGI [25]: 22700 nM
- GI50 [26]: 1950 nM
- TGI [26]: 3990 nM
- GI50 [27]: 2250 nM
- TGI [27]: 6250 nM
- GI50 [28]: 1940 nM
- TGI [28]: 4380 nM
- GI50 [29]: 3040 nM
- TGI [29]: 11800 nM
- GI50 [30]: 1800 nM
- TGI [30]: 3550 nM
- GI50 [31]: 2000 nM
- TGI [31]: 4230 nM
- GI50 [32]: 14600 nM
- TGI [32]: 28900 nM
- GI50 [34]: 4670 nM
- TGI [34]: 19400 nM
- GI50 [35]: 1610 nM
- TGI [35]: 3520 nM
- GI50 [36]: 1930 nM
- TGI [36]: 3880 nM
- GI50 [37]: 1880 nM
- TGI [37]: 4550 nM
- GI50 [38]: 1790 nM
- TGI [38]: 3790 nM
- GI50 [39]: 1660 nM
- TGI [39]: 3090 nM
- GI50 [40]: 1610 nM
- TGI [40]: 2980 nM
- GI50 [41]: 12300 nM
- TGI [41]: 28200 nM
- GI50 [42]: 1790 nM
- TGI [42]: 3450 nM
- GI50 [43]: 3360 nM
- TGI [43]: 13000 nM
- GI50 [44]: 1660 nM
- TGI [44]: 3080 nM
- GI50 [45]: 4100 nM
- TGI [45]: 19800 nM
- GI50 [46]: 5970 nM
- TGI [46]: 20800 nM
- GI50 [47]: 13000 nM
- TGI [47]: 36400 nM
- GI50 [48]: 1580 nM
- TGI [48]: 3970 nM
- GI50 [49]: 2020 nM
- TGI [49]: 4040 nM
- GI50 [50]: 4970 nM
- TGI [50]: 17600 nM
- GI50 [51]: 5520 nM
- TGI [51]: 21300 nM
- GI50 [52]: 14100 nM
- TGI [52]: 29200 nM
- GI50 [53]: 2100 nM
- TGI [53]: 4770 nM
- GI50 [54]: 2190 nM
- TGI [54]: 8180 nM
- GI50 [55]: 1930 nM
- TGI [55]: 4440 nM
- GI50 [56]: 1960 nM
- TGI [56]: 5220 nM
- GI50 [57]: 3260 nM
- TGI [57]: 12100 nM
